Assay results as given in ChEMBL document CHEMBL1649195, “Tetracyclines modulate protease-activated receptor 2-mediated proinflammatory reactions in epidermal keratinocytes” (Antimicrob Agents Chemother, 2009).
Activity calls are given as the source filed them. The rule behind the calls is not given here.

Legend:
[1] = target: Proteinase-activated receptor 2 (Homo sapiens) (UniProt P55085); assay: Inhibition of PAR2-mediated TNFalpha and SLIGKV-NH2-induced interleukin-8 production in normal human epidermal keratinocytes at 10 uM by ELISA
[2] = target: Proteinase-activated receptor 2 (Homo sapiens) (UniProt P55085); assay: Inhibition of PAR2-mediated SLIGKV-NH2-induced interleukin-8 production in normal human epidermal keratinocytes at 5 uM after 24 hrs by ELISA
[3] = Cytotoxicity against normal human epidermal keratinocytes at 5 uM after 72 hrs by MTT assay; assay type: cell-based; settings: keratinocyte
[4] = target: Proteinase-activated receptor 2 (Homo sapiens) (UniProt P55085); assay: Inhibition of PAR2 gene expression in normal human epidermal keratinocytes at 10 uM after 48 hrs by quantitative RT-PCR
[5] = target: Proteinase-activated receptor 2 (Homo sapiens) (UniProt P55085); assay: Inhibition of PAR2-mediated IL1-beta and SLIGKV-NH2-induced interleukin-8 production in normal human epidermal keratinocytes at 10 uM by ELISA
[6] = target: Proteinase-activated receptor 2 (Homo sapiens) (UniProt P55085); assay: Inhibition of PAR2-mediated SLIGKV-NH2-induced interleukin-8 production in normal human epidermal keratinocytes at 10 uM after 24 hrs by ELISA
[7] = Cytotoxicity against normal human epidermal keratinocytes at 10 uM after 72 hrs by MTT assay; assay type: cell-based; settings: keratinocyte
[8] = Cytotoxicity against normal human epidermal keratinocytes at 100 uM after 72 hrs by MTT assay; assay type: cell-based; settings: keratinocyte

Proteinase-activated receptor 2 (Homo sapiens), sequence (P55085 whole entry): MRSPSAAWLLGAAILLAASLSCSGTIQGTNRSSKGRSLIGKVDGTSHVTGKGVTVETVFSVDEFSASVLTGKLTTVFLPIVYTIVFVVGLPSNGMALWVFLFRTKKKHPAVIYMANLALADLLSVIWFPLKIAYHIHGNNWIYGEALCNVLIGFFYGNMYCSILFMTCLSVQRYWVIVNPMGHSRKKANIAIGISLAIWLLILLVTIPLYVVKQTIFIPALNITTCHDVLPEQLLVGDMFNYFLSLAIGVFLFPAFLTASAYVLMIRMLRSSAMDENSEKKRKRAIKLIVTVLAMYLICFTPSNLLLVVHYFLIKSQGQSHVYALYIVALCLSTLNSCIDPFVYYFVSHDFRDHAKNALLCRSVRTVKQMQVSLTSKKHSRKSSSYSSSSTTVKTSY

Row | Activity [1] | Activity [2] | Activity [4] | Activity [5] | Activity [6] | Structure (SMILES) | Activity [3] | Activity [7] | Activity [8]
1 | inactive |  |  |  |  | CC[C@H]1OC(=O)[C@H](C)[C@@H](O[C@H]2C[C@@](C)(OC)[C@@H](O)[C@H](C)O2)[C@H](C)[C@@H](O[C@@H]2O[C@H](C)C[C@H](N(C)C)[C@H]2O)[C@](C)(O)C[C@@H](C)/C(=N\OCOCCOC)[C@H](C)[C@@H](O)[C@]1(C)O |  |  | 
2 | inactive |  |  |  |  | CC[C@H]1OC(=O)[C@H](C)[C@@H](O[C@H]2C[C@@](C)(OC)[C@@H](O)[C@H](C)O2)[C@H](C)[C@@H](O[C@@H]2O[C@H](C)C[C@H](N(C)C)[C@H]2O)[C@](C)(OC)C[C@@H](C)C(=O)[C@H](C)[C@@H](O)[C@]1(C)O |  |  | 
3 | Active | Active | inactive | Active | Active | C[C@H]1c2cccc(O)c2C(=O)C2=C(O)[C@]3(O)C(=O)C(C(N)=O)=C(O)[C@@H](N(C)C)[C@@H]3[C@@H](O)[C@@H]21.O [DOXYCYCLINE] | Non-toxic | Non-toxic | Toxic
4 | Active | Active | inactive | Active | Active | CN(C)c1ccc(O)c2c1C[C@H]1C[C@H]3[C@H](N(C)C)C(O)=C(C(N)=O)C(=O)[C@@]3(O)C(O)=C1C2=O [MINOCYCLINE] | Non-toxic | Non-toxic | Toxic
5 | Active | Active | inactive | inactive | Active | CN(C)[C@@H]1C(O)=C(C(N)=O)C(=O)[C@@]2(O)C(O)=C3C(=O)c4c(O)cccc4[C@@](C)(O)[C@H]3C[C@@H]12 [TETRACYCLINE] | Non-toxic | Non-toxic | Toxic
